Test results reported in patent US20210228736A1, “PATHOGEN CONTROL COMPOSITIONS AND USES THEREOF” (Flagship Pioneering Innovations VI, LLC, priority 2018, published 2021).

Tests used:
Saccharomyces cerevisiae = assay: Treatment with DOX-loaded grapefruit PMPs, kinetic OD 600 nm (S. cerevisiae); assay type: cell-based
Experimental: (§1) Bacteria and yeast strains were maintained as indicated by the supplier: E. coli (ATCC, #25922) was grown on Trypticase Soy Agar/broth at 37° C., Pseudomonas aeruginosa (ATCC) was grown on Tryptic soy Agar/broth with […] rifampicin at 37° C., and Saccharomyces cerevisiae (ATCC, #9763) was grown on yeast extract peptone dextrose broth (YPD) and maintained at 30° C. Prior to treatment, fresh one day cultures were grown overnight, the OD (600 nm) was adjusted to 0.1 OD with medium prior to use, and bacteria/yeast were transferred to a 96 well plate for treatment (duplicate samples, 100 μl/well). […] Plates were covered with aluminum foil, and incubated at 37° C. (E. coli, P. aeruginosa), or 30° C. (S. cerevisiae) and agitated at 220 rpm.
(§2) A kinetic Absorbance measurement at 600 nm was performed on a SpectraMax® spectrophotometer to monitor the OD of the cultures at t=0h, t=1h, t=2h, t=3h, t=4.5h, t=16h (E. coli, P. aeruginosa) or t=0.5h, t=1.5h, t=2.5h, t=3.5h, t=4h, t=16h (S. cerevisiae). […] To compare the cytotoxic effect of PMP-DOX treatment on different bacterial and yeast strains, within each treatment group the relative OD was determined as compared to the untreated control (set to 100%).

Pseudomonas aeruginosa = assay: Treatment with DOX-loaded grapefruit PMPs, kinetic OD 600 nm (P. aeruginosa); assay type: cell-based
Experimental: as §1, §2

E. coli = assay: Treatment with DOX-loaded grapefruit PMPs, kinetic OD 600 nm (E. coli); assay type: cell-based, Escherichia coli
Experimental: as §1, §2

## COc1cccc2c1C(=O)c1c(O)c3c(c(O)c1C2=O)C[C@@](O)(C(=O)CO)C[C@@H]3O[C@H]1C[C@H](N)[C@H](O)[C@H](C)O1 [free doxorubicin, doxorubicin]
Saccharomyces cerevisiae
  onset of cytotoxicity compared with PMP-DOX at the same dosages: cytotoxicity is induced earlier than with PMP-DOX delivery
Pseudomonas aeruginosa
  onset of cytotoxicity compared with PMP-DOX at the same dosages: cytotoxicity is induced earlier than with PMP-DOX delivery
E. coli
  onset of cytotoxicity compared with PMP-DOX at the same dosages: cytotoxicity is induced earlier than with PMP-DOX delivery
